Experimental findings from ChEMBL document CHEMBL3124844 (J Med Chem, 2014) are described below.

Some results are limits rather than exact numbers.

Broadly, the inhibition is the change of the read-out against control, counted positive when it falls. The low end stands for a weak effect, the high end for a strong effect. In general, Ki refers to a measure of affinity in units of concentration, obtained from inhibition or displacement. Read a high Ki as a looser hold on the target.

The species named for experiment [1] is Rattus norvegicus. The experiment is described as follows: Displacement of [3H]nisoxetine from Sprague-Dawley rat brain NET at 100 uM after 180 mins by liquid scintillation counting analysis relative to control. In kind it is tissue-based.
In experiment [2] the target is Sodium-dependent serotonin transporter (Rattus norvegicus) (UniProt P31652). Description: Displacement of [3H]citalopram from Sprague-Dawley rat brain SERT at 100 uM after 60 mins by liquid scintillation counting analysis relative to control. In kind it is tissue-based. (Displacement assays read how much labelled ligand stays bound in the presence of the test substance.)
Chain of Sodium-dependent serotonin transporter (Rattus norvegicus) (P31652 whole entry): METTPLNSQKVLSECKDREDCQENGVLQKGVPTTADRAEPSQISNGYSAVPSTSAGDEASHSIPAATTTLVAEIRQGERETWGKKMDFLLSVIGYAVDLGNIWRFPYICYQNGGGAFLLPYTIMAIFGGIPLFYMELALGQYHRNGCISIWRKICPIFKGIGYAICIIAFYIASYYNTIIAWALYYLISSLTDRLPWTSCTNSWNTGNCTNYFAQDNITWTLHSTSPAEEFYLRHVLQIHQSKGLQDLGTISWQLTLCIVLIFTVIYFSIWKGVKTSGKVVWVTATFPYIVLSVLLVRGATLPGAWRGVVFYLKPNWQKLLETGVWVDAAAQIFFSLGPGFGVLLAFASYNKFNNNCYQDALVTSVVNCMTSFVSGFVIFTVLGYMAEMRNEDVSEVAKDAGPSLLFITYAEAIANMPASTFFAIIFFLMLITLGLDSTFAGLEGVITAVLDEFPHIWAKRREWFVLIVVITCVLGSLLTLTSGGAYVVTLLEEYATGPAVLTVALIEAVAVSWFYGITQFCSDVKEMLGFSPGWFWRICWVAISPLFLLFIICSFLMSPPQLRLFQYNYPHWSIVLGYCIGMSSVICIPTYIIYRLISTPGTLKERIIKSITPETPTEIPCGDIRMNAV

The target in experiment [3] is Sodium-dependent serotonin transporter (Rattus norvegicus, UniProt P31652). Description: Displacement of [3H]citalopram from Sprague-Dawley rat brain SERT after 60 mins by liquid scintillation counting analysis. In kind it is tissue-based.
Chain of Sodium-dependent serotonin transporter (P31652 whole entry): as above
Experiment [4] is described as follows: Displacement of [3H]nisoxetine from Sprague-Dawley rat brain NET after 180 mins by liquid scintillation counting analysis. Format: tissue-based.
Experiment [5] has as its target T1, Sodium-dependent dopamine transporter (Rattus norvegicus, UniProt P23977). The experiment is described as follows: Displacement of [3H]WIN35,428 from Sprague-Dawley rat brain DAT after 120 mins by liquid scintillation counting analysis. Format: tissue-based.
The species named for experiment [6] is Rattus norvegicus. The experiment is described as follows: Selectivity ratio of Ki for Sprague-Dawley rat brain SERT to Ki for Sprague-Dawley rat brain DAT.
In experiment [7] the target is T1, Sodium-dependent dopamine transporter. The experiment is described as follows: Displacement of [3H]WIN35,428 from rat brain DAT. In kind it is tissue-based.

T1 sequence (P23977 whole entry): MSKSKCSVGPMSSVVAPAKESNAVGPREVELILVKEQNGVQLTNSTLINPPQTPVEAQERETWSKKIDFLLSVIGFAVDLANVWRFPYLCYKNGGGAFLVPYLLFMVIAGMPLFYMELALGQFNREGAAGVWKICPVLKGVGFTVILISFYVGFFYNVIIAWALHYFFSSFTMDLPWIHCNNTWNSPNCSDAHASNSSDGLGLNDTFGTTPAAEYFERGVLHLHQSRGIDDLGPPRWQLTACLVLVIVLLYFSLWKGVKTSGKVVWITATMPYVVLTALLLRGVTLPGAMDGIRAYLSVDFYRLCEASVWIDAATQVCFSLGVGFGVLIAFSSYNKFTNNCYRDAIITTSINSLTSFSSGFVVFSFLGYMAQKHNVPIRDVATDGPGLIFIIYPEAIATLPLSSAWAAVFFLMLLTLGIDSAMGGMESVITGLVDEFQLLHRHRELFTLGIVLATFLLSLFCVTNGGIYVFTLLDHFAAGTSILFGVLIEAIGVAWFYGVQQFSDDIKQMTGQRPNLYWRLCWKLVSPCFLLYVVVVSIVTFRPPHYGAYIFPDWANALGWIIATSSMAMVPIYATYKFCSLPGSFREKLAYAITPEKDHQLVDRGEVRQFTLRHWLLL

On to `CCCCNC(=O)CSC(c1ccccc1)c1ccccc1`, for which the inhibition (in the experiment filed under Rattus norvegicus [1]; in experiment [2]) was < 50% throughout.
As to `CCCNC(=O)CSC(c1ccc(F)cc1)c1ccc(F)cc1`, the Ki was 44.2 µM in experiment [3] and 59.7 µM in experiment [4].
As to `O=C(CSC(c1ccccc1)c1ccccc1)NCC1CC1`, the results for the Ki in experiment [3] and in experiment [5] were 20.5 µM and 13.6 µM, respectively. The inhibition in the experiment listed under Rattus norvegicus [1] is < 50%.
With `NC(=O)C[S+]([O-])C(c1cccc(Cl)c1)c1cccc(Cl)c1` (stereo not given), the inhibition (in the experiment filed under Rattus norvegicus [1]; in experiment [2]) was < 50% in each case.
`CNC(=O)CSC(c1ccccc1)c1ccccc1` had a Ki in experiment [3] of 656 µM.
As for `CNC(=O)CSC(c1ccc(Cl)cc1)c1ccc(Cl)cc1`, in experiment [3], the Ki was found to be 10.7 µM.
Still for that read-out and setting: the result for `NCC[S+]([O-])C(c1ccccc1)c1ccccc1` (stereo not given) reads 3.38 µM.
For the compound `O=C(CSC(c1ccc(Br)cc1)c1ccc(Br)cc1)NCCCc1ccccc1`, the Ki in experiment [5] was determined as 0.238 µM; in experiment [4], 35.5 µM.
For `O=C(CSC(c1ccc(Br)cc1)c1ccc(Br)cc1)NCCCCc1ccccc1`, the inhibition (in the experiment listed under Rattus norvegicus [1]; in experiment [2]) was < 50% each time.
Take `c1ccc(CCCNCCSC(c2ccccc2)c2ccccc2)cc1`: the Ki was 0.927 µM in experiment [3] and 5.5 µM in experiment [4].
Take `O=C(CSC(c1ccccc1)c1ccccc1)NCCCCc1ccccc1`: the inhibition in experiment [2] was < 50%.
Turning to `NC(=O)CSC(c1cccc(Cl)c1)c1cccc(Cl)c1`, the Ratio Ki in the experiment listed under Rattus norvegicus [6] is > 2900. The values for the Ki in experiment [3] and in experiment [4] were 808 µM and 45.4 µM, respectively. For the same compound, the inhibition in experiment [2] was < 50%.
In experiment [3], `O=C(C[S+]([O-])C(c1ccc(Br)cc1)c1ccc(Br)cc1)NCCCc1ccccc1` (stereo not given) showed a Ki of 0.892 µM. For the same compound, the inhibition in the experiment filed under Rattus norvegicus [1] is < 50%.
With `C=CCNC(=O)CSC(c1ccccc1)c1ccccc1`, the Ki was 303 µM in experiment [3], 8.37 µM in experiment [5] and 171 µM in experiment [4]. Besides, the inhibition (in the experiment listed under Rattus norvegicus [1]; in experiment [2]) was < 50% each time.
As to `CC(=O)N1[C@@H]2CC[C@H]1C[C@H](OC(c1ccc(F)cc1)c1ccc(F)cc1)C2`, affinity in experiment [7] was put at a Ki of 2.34 µM.
With `O=C(CSC(c1ccc(Br)cc1)c1ccc(Br)cc1)NCC1CC1`, the values for the Ki in experiment [3] and in experiment [5] were 7.03 µM and 0.975 µM, respectively. Besides, the inhibition in the experiment listed under Rattus norvegicus [1] was < 50%.
Turning to `CCCCNCCSC(c1ccccc1)c1ccccc1`, the Ki came out at 5.7 µM in experiment [3], 0.31 µM in experiment [5] and 11.5 µM in experiment [4].
On to `CCCNC(=O)CSC(c1ccccc1)c1ccccc1`, for which the Ki stood at 419 µM in experiment [3] and 68 µM in experiment [4]. Moreover, the inhibition in experiment [2] was < 50%.
Take `NC(=O)CSC(c1ccccc1)c1ccccc1`: the inhibition in the experiment listed under Rattus norvegicus [1] was < 50%. The compound further showed a Ki in experiment [4] of 285 µM.
Turning to `O=C(CSC(c1ccc(F)cc1)c1ccc(F)cc1)NCCCc1ccccc1`, the Ki in experiment [3] amounted to 3.5 µM. For the same compound, the inhibition in the experiment listed under Rattus norvegicus [1] was < 50%.
As to `CCCNC(=O)CSC(c1ccc(Cl)cc1)c1ccc(Cl)cc1`, the affinity in experiment [3], expressed as Ki, was 10.1 µM.
Take `Cc1ccc(C(c2ccc(C)cc2)[S+]([O-])CC(N)=O)cc1` (stereo not given): the inhibition (in the experiment listed under Rattus norvegicus [1]; in experiment [2]) was < 50% throughout.
Take `O=C(CSC(c1ccc(F)cc1)c1ccc(F)cc1)NCC1CC1`: the Ki amounted to 34 µM in experiment [3] and 6.7 µM in experiment [5].
On to `CCCNC(=O)CSC(c1ccc(Br)cc1)c1ccc(Br)cc1`, for which the affinity in experiment [4] corresponds to a Ki of 10.6 µM.
`CNC(=O)C[S+]([O-])C(c1ccccc1)c1ccccc1` (stereo not given) yielded an inhibition constant (Ki) in experiment [5] of 13.1 µM. Moreover, the inhibition (in the experiment filed under Rattus norvegicus [1]; in experiment [2]) was < 50% throughout.
`NCCSC(c1ccccc1)c1ccccc1`: affinity in experiment [3] was put at a Ki of 0.221 µM.
Consider `[O-][S+](CCNCCCc1ccccc1)C(c1ccc(F)cc1)c1ccc(F)cc1` (stereo not given), for which the values for the Ki in experiment [3] and in experiment [5] were 1.28 µM and 0.183 µM, respectively.
On to `[O-][S+](CCNCCCc1ccccc1)C(c1ccc(Cl)cc1)c1ccc(Cl)cc1` (stereo not given), for which the Ki in experiment [3] was 0.553 µM; in experiment [5] it was 0.645 µM; in experiment [4] it was 5.67 µM.
The corresponding values for `[O-][S+](CCNCCCc1ccccc1)C(c1ccc(Br)cc1)c1ccc(Br)cc1` (stereo not given) are 0.557 µM, 1.27 µM and 8.65 µM.
On to `NC(=O)C[S+]([O-])C(c1cccc(F)c1)c1cccc(F)c1` (stereo not given), for which the affinity in experiment [5], expressed as Ki, was 5.93 µM. Further, the inhibition (in the experiment listed under Rattus norvegicus [1]; in experiment [2]) was < 50% throughout.
On to `CCCCNCC[S+]([O-])C(c1ccccc1)c1ccccc1` (stereo not given), for which the Ki worked out at 63.6 µM in experiment [3] and 138 µM in experiment [4].
For `NC(=O)C[S+]([O-])C(c1ccccc1)c1cccc(Br)c1` (racemic), the inhibition (in the experiment filed under Rattus norvegicus [1]; in experiment [2]) was < 50% throughout.
In experiment [4], `CNC(=O)CSC(c1ccc(Br)cc1)c1ccc(Br)cc1` yielded a Ki of 11 µM.
